From US9327005B1, “Compositions and methods for improved energy metabolism” (VDF FutureCeuticals, Inc., priority 2012, dated 2016)

System: freshly isolated human peripheral blood cells
Test: Seahorse oxygen consumption rate (OCR)
Format: cell-based
Conditions: average
Experimental: Testing was performed using Seahorse technology in order to measure real-time changes in oxygen consumption by freshly isolated human peripheral blood cells.
All results were generated on freshly isolated blood cells from different and randomly selected healthy and fasted donors. […] These two values were used as positive and negative controls, respectively, in order to ensure quality of test, viability and metabolic functionality of fresh human blood cells. Oligomycin inhibits oxygen metabolism. In presence of this substance, cells generate ATP/energy mainly via glycolysis. […] To ensure quality of human blood cells, blood was collected directly into Cell Preparation Tube with Sodium Citrate, Becton Dickinson Inc. Peripheral blood cells were isolated during 45 minutes following Protocol provided by Becton Dickinson. Blood cells were cultivated during each experiment in Seahorse media supplemented with 5 mM of glucose. Glucose concentration was adjusted from 11 mM to 5 mM to avoid testing of samples under hyperglycemic conditions (typically glucose at concentration lower than 95 mg/dl).
Cells were isolated from healthy fasted subject, and treated with apple extract at indicated dose. […] Rate 7, 8 and 14 represent time-points: 4, 8 and 32 minutes after the treatment, respectively.

| Structure (SMILES) | inhibition of OCR (negative control) [%] | increase in OCR (positive control) [%] |
| --- | --- | --- |
| CC[C@H]1/C=C/C=C/C[C@@H](C)[C@H](O)[C@@](C)(O)C(=O)[C@@H](C)[C@H](O)[C@@H](C)C(=O)[C@@H](C)[C@H](O)[C@@H](C)/C=C/C(=O)O[C@@H]2[C@H](C)[C@H](CC1)O[C@]1(CC[C@H](C)[C@H](C[C@@H](C)O)O1)[C@H]2C [oligomycin] | 86 | – |
| N#CC(C#N)=NNc1ccc(OC(F)(F)F)cc1 [FCCP] | – | 397 |
